Source: PubChem BioAssay (NCI)
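Compound exposure: 48 hours, 5 concentrations, 96-well plates. GI50 = concentration required for 50% inhibition of growth. TGI is the concentration that stops growth completely.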

Assays:
Assay in all cases: NCI-60 cell line screen, 48 h
[1] = tested on: A498 renal
[2] = tested on: CCRF-CEM leukemia
[3] = tested on: DU-145 prostate
[4] = tested on: HCC-2998 colon
[5] = tested on: MCF7 breast
[6] = tested on: NCI/ADR-RES ovarian
[7] = tested on: SF-268 CNS
[8] = tested on: SK-MEL-5 melanoma
[9] = tested on: U251 CNS
[10] = tested on: SNB-75 CNS

CC(C)CNc1nc(-c2ccccc2Cl)nc2ccccc12
GI50 [1]: 18.5 µM | TGI [1]: 32.6 µM | GI50 [2]: 18.8 µM | TGI [2]: 43.3 µM | GI50 [3]: 16.1 µM | TGI [3]: 30.5 µM | GI50 [4]: 19.8 µM | TGI [4]: 35.9 µM | GI50 [5]: 22.6 µM | TGI [5]: 47.7 µM | GI50 [6]: 17.8 µM | TGI [6]: 42.6 µM | GI50 [7]: 22.1 µM | TGI [7]: 40.4 µM | GI50 [8]: 16.2 µM | TGI [8]: 29.8 µM | GI50 [9]: 16.9 µM | TGI [9]: 30.5 µM

O=C(Oc1ccc[nH]c1=O)c1cc([N+](=O)[O-])cc([N+](=O)[O-])c1
GI50 [1]: > 100 µM | TGI [1]: > 100 µM | GI50 [2]: 79 µM | TGI [2]: > 100 µM | GI50 [3]: > 100 µM | TGI [3]: > 100 µM | GI50 [4]: > 100 µM | TGI [4]: > 100 µM | GI50 [5]: > 100 µM | TGI [5]: > 100 µM | GI50 [6]: > 100 µM | TGI [6]: > 100 µM | GI50 [7]: > 100 µM | TGI [7]: > 100 µM | GI50 [8]: 34.3 µM | TGI [8]: > 100 µM | GI50 [10]: > 100 µM | TGI [10]: > 100 µM | GI50 [9]: > 100 µM | TGI [9]: > 100 µM

O=C(O)c1ccc(CN2CCC(CN[C@@H]3C[C@H]3c3ccccc3)CC2)cc1
GI50 [1]: > 100 µM | TGI [1]: > 100 µM | GI50 [2]: > 100 µM | TGI [2]: > 100 µM | GI50 [3]: > 100 µM | TGI [3]: > 100 µM | GI50 [4]: > 100 µM | TGI [4]: > 100 µM | GI50 [5]: > 100 µM | TGI [5]: > 100 µM | GI50 [6]: > 100 µM | TGI [6]: > 100 µM | GI50 [7]: > 100 µM | TGI [7]: > 100 µM | GI50 [8]: > 100 µM | TGI [8]: > 100 µM | GI50 [10]: > 100 µM | TGI [10]: > 100 µM | GI50 [9]: > 100 µM | TGI [9]: > 100 µM

Cc1cc(Cl)ccc1OCC(=O)Nc1nc2c(Cl)cccc2s1
GI50 [1]: > 100 µM | TGI [1]: > 100 µM | GI50 [2]: 6.94 µM | TGI [2]: 35.7 µM | GI50 [3]: 26.4 µM | TGI [3]: > 100 µM | GI50 [4]: > 100 µM | TGI [4]: > 100 µM | GI50 [5]: 11.2 µM | TGI [5]: 24 µM | GI50 [6]: 23.8 µM | TGI [6]: > 100 µM | GI50 [7]: 28.8 µM | TGI [7]: > 100 µM | GI50 [8]: > 100 µM | TGI [8]: > 100 µM | GI50 [10]: 23.7 µM | TGI [10]: > 100 µM | GI50 [9]: 8.32 µM | TGI [9]: 25.2 µM

O=c1[nH]c2ccccc2cc1-c1nc2ccc(Cl)cc2[nH]1
GI50 [1]: 2.48 µM | TGI [1]: 15.7 µM | GI50 [2]: 3.24 µM | TGI [2]: > 100 µM | GI50 [3]: 7.68 µM | TGI [3]: 64.2 µM | GI50 [4]: 11 µM | TGI [4]: > 100 µM | GI50 [5]: 1.4 µM | TGI [5]: > 100 µM | GI50 [6]: 6.09 µM | TGI [6]: > 100 µM | GI50 [7]: 6.09 µM | TGI [7]: > 100 µM | GI50 [8]: 3.4 µM | TGI [8]: 32.5 µM | GI50 [10]: 2.98 µM | TGI [10]: > 100 µM | GI50 [9]: 3.87 µM | TGI [9]: > 100 µM

COc1cc(Nc2ncccc2C(=O)Nc2nc3ccc(F)cc3s2)cc(OC)c1OC
GI50 [1]: 3.45 µM | TGI [1]: > 100 µM | GI50 [2]: 3.26 µM | TGI [2]: > 100 µM | GI50 [3]: 5.5 µM | TGI [3]: > 100 µM | GI50 [4]: 2.93 µM | TGI [4]: 6.96 µM | GI50 [5]: 3.23 µM | TGI [5]: > 100 µM | GI50 [6]: 2.92 µM | TGI [6]: > 100 µM | GI50 [7]: 6.56 µM | TGI [7]: > 100 µM | GI50 [8]: 1.63 µM | TGI [8]: 5.14 µM | GI50 [10]: 4.48 µM | TGI [10]: > 100 µM | GI50 [9]: 3.01 µM | TGI [9]: > 100 µM

O=C1NC(=S)S/C1=C/c1ccc2c(c1)OCO2
GI50 [1]: 28.7 µM | TGI [1]: > 100 µM | GI50 [2]: > 100 µM | TGI [2]: > 100 µM | GI50 [3]: > 100 µM | TGI [3]: > 100 µM | GI50 [4]: > 100 µM | TGI [4]: > 100 µM | GI50 [5]: > 100 µM | TGI [5]: > 100 µM | GI50 [6]: > 100 µM | TGI [6]: > 100 µM | GI50 [7]: > 100 µM | TGI [7]: > 100 µM | GI50 [8]: > 100 µM | TGI [8]: > 100 µM | GI50 [9]: > 100 µM | TGI [9]: > 100 µM

O=C1C(=O)c2ccccc2C(O)=C1C(C1=C(O)c2ccccc2C(=O)C1=O)c1ccc(Cl)cc1
TGI [1]: 34 µM | TGI [2]: > 46 µM | TGI [3]: 10.3 µM | TGI [5]: 11.4 µM | TGI [6]: > 77.5 µM | TGI [7]: 59.8 µM | TGI [8]: 19.9 µM | TGI [10]: 9.83 µM | TGI [9]: 16.3 µM

CC(C)C(O)(C(C)C)C(C)C
TGI [1]: > 100 µM | TGI [2]: > 100 µM | TGI [3]: > 100 µM | TGI [5]: > 100 µM | TGI [6]: > 100 µM | TGI [7]: > 100 µM | TGI [8]: > 100 µM | TGI [10]: > 100 µM | TGI [9]: > 100 µM

CC(=O)OC1OC([C@H]2c3cccc(O)c3C(=O)c3c(O)cc(C)cc32)C(O)C(O)C1O (stereo partly drawn)
GI50 [1]: 0.105 µM | TGI [1]: 0.589 µM | GI50 [2]: 0.444 µM | TGI [2]: 2.25 µM | GI50 [3]: 0.281 µM | TGI [3]: 12.5 µM | GI50 [4]: < 0.01 µM | GI50 [5]: 0.287 µM | TGI [5]: 0.803 µM | GI50 [6]: 0.0383 µM | TGI [6]: 5.95 µM | GI50 [7]: 0.0788 µM | TGI [7]: 1.74 µM | GI50 [10]: 0.0297 µM | TGI [10]: 2.74 µM | GI50 [9]: < 0.0164 µM | TGI [9]: 0.244 µM

O=C(O)CSCCc1ccccc1
TGI [1]: > 100 µM | TGI [3]: > 100 µM | TGI [5]: > 100 µM | TGI [6]: > 100 µM | TGI [7]: > 100 µM | TGI [8]: > 100 µM | TGI [10]: > 100 µM | TGI [9]: > 100 µM

CN(C)Cc1cc(C(F)(F)F)ccc1C(O)(c1ccccc1)c1ccccc1
TGI [1]: 24.7 µM | TGI [2]: 28.9 µM | TGI [3]: > 100 µM | TGI [5]: 27.4 µM | TGI [6]: 30.4 µM | TGI [7]: 34.3 µM | TGI [8]: 27.3 µM | TGI [10]: 21.8 µM | TGI [9]: 24.9 µM
